We go through 1 substance from US9393288B2, “Methods of treating diseases associated with PPARγ” (The University of Vermont and State Agricultural College, priority 2012, dated 2016).

The conditions of data set [1]: rat, in vivo. The method, then:
A separate group of SHR-F was used to determine if relaxin crosses the BBB by treating with relaxin (4 μg/hr) for 14 days and measuring relaxin concentration in cerebrospinal fluid (CSF) and serum (SHR-F-Rln-CSF, n=4). For the osmotic pump implant, animals were anesthetized with 3% isoflurane and minipumps implanted subcutaneously in the back of the neck. All animals received post-surgical analgesia (buprenorphine, 50 μg/kg, s.c.). Relaxin infusion was continuous for 14 days until animals were euthanized for isolated vessel experiments and tissue collection.
Animals were anesthetized with isoflurane (3% in oxygen), decapitated, and trunk blood was collected for measurement of circulating relaxin. Serum was then collected and stored at −80° C. for determination of relaxin levels by enzyme-linked immunosorbent assay (ELISA) following manufacturer's instructions (Human Relaxin-2 Quantikine ELISA Kit, R&D Systems, Minneapolis, Minn., USA). Serum samples were diluted by 1:500 in the assay.
To determine the presence of relaxin in CSF, animals were anesthetized and CSF collected through a needle inserted into the cisterna magna (Liu, L., and Duff, K. (2008) A technique for serial collection of cerebrospinal fluid from the cisterna magna in mouse. Journal of visualized experiments: JoVE). […] Relaxin levels were determined in serum and CSF by ELISA as described above, except CSF was not diluted.

Data set [2] concerns parenchymal arterioles (PA). Nature of the data set: Pressurized arteriograph: vascular reactivity and structure of PA from relaxin-treated NP Sprague Dawley rats. The format is in vivo, rat. Conditions: for Kind of structural remodeling of PA: normotensive NP rats. From the text: Animals and Treatment Groups: All procedures were approved by the Institutional Animal Care and Use Committee and conducted in accordance with the National Institutes of Health Guide for the Care and Use of Laboratory Animals. Female virgin NP Sprague Dawley rats (250-300 g, 14-16 weeks, Charles River, Canada) were used for all experiments and housed in the University of Vermont Animal Care Facility. Animals were randomly selected and grouped as untreated (N=4), treated with recombinant human relaxin-2 (relaxin, 4 μg/hr; N=14), relaxin plus a specific PPARγ inhibitor GW9662 (10 mg/kg daily in food; N=8), or vehicle (20 mM sodium acetate; N=14) for 10 days through osmotic minipumps (Alzet 2ML2, Durect Corp., Cupertino, Calif., USA). GW9662 treatment was started 1 day before and for the duration of relaxin treatment to ensure PPARγ was inhibited. Animals were anesthetized with 3% isoflurane and minipumps implanted subcutaneously in the back of the neck. All animals received post-surgical analgesic (buprenorphine, 50 μg/kg, s.c.). Relaxin infusion was continuous for 10 days until animals were euthanized for vessel experiments and tissue collection. The minipumps used were capable of delivering relaxin for 14 days and thus tissue collection was within this duration.
Vessel Preparation and Pressurized Arteriograph System: After collecting trunk blood, the brain was quickly removed and placed in cold physiological salt solution (PSS). In the first set of experiments, PA between the M1 and M2 region of the MCA territory and the MCA from the same animals were carefully isolated from vehicle- or relaxin-treated animals and mounted on glass cannulas in a dual-chambered arteriograph such that one PA and one MCA from each animal were studied simultaneously. PA were identified as branches off the MCA that penetrated into the brain tissue, as previously described (25). In the second set of experiments, PA from the same brain region as above were dissected from relaxin+GW9662-treated animal and compared to PA from vehicle- and relaxin-treated animals. MCA were not studied in this second set of animals because there was no effect of relaxin on that segment of the vasculature. The proximal cannulas were connected to an in-line pressure transducer and a servo-null pressure control system (Living Systems Instrumentation, Burlington, Vt., USA) that allowed intravascular pressure to be maintained at a set pressure or changed at a variable rate. The distal cannulas were closed during the experiment to avoid flow-mediated responses. Temperature and pH were continuously measured and maintained at 37.0±0.5° C. and 7.40±0.05, respectively. Measurements of inner diameter (ID) and wall thickness (WT) were made via video microscopy (Living Systems Instrumentation).
Vascular Reactivity and Structural Characteristics in PA and MCA: For the first set of experiments, PA and MCA were equilibrated for 1 hour at 25 mmHg, after which myogenic activity was determined by stepwise increases in pressure from 40 to 100 mmHg for PA or 50 to 175 mmHg for MCA. ID and WT were measured at each pressure once stable. Changes in ID and WT were measured in PA only in response to small- (SKCa) and intermediate- (IKCa) conductance calcium-activated potassium channels blockers, apamin (3×10^−7 M) and TRAM-34 (10^−6 M), respectively. PA are unique in that the contribution of endothelium-derived hyperpolarizing factors (EDHF) to tone is greater than most vessels Cipolla et al. (2009) Stroke 40, 1451-1457. Thus, inhibition of SKCa/IKCa channels, a critical component in the EDHF pathway, causes constriction in PA Cipolla et al. (2009) Stroke 40, 1451-1457. We therefore assessed the effect of relaxin on constriction of PA in response to SKCa/IKCa channel inhibition in order to assess this unique pathway. […]

Setting [3] is: relaxin- vs vehicle-treated NP rats.
The mark [4] stands for this setting: relaxin- vs vehicle-treated NP rats, all pressures studied.

As for relaxin, in data set [1], the “Relaxin in CSF as share of that in the circulation” value is “about 0.3%” and the “Relaxin in cerebrospinal fluid” value was 110 ± 30 pg/mL. In addition, in data set [2], the “Kind of structural remodeling of PA” value is given as “hypertrophic outward remodeling”. In addition, the “Kind of structural remodeling of PA” value in data set [2] (listed as Relaxin) is “outward hypertrophic remodeling”. The “Distensibility of PA” value in data set [2] (normotensive rats) is “without affecting”. Also, in data set [2] (setting [3]), the “CSA of PA wall” value was “increased”; the “OD of PA” value is reported as “increased”; the “Passive WT of PA” value was “increased”; the “Response of PA to SKCa/IKCa inhibition (apamin, TRAM-34)” value is “no difference”. Further, the “Tone of PA” value in data set [2] (setting [3]) is reported as “did not significantly affect”. In data set [2] (setting [4]), the “Active diameter of PA” value was “increase” and the “Passive ID of PA” value is reported as “significantly increased”.
